Measured values from patent publication US9340580B2, “Peptide with multiple epitopes” (priority 2007, dated 2016).
Several values for one entry are separate records, joined by “and”; a condition that tells them apart may be missing. Equal entries are not always repeated. Where a SMILES comes first, the peptide text is derived from it.

Tests used:
[1] = precipitation in the aqueous solution of the binding assay; format: physicochemical; conditions: read-out: Precipitation in assay: lowest concentration at which an insoluble white precipitate is seen
Text: (§1) This is a characteristic of promiscuous HLA-DRB1* binders.

DQA1*0102/DQB1*0602 = DQA1*0102/DQB1*0602 (Homo sapiens, UniProt P01909+P01920, A157G/A45G/C70R/E118A/E183D/E77G/F83G/G63E/H151Q/H199R/H252R/H253Q/I129T/I235V/I88M/INS77G/K197Q/L117V/L119F/L178F/L71W/L74F/L85Q/L91A/L98M/N214S/P87R/Q116E/Q76K/R102G/R240Q/R75S/R78G/S102Y/S185I/S41F/S97I/T121G/T122I/T172A/T86R/V229M/V68A/V73E/Y34C/Y41F/Y58L); assay: competitive MHC class II binding assay; conditions: control peptide Human Insulin B 1-15
Description: as §1
In addition, to identify lower affinity binders, the assay was also carried out under less stringent conditions. All the Der p binding peptides were seen to have a high ratio when tested against this allotype, showing they were low affinity binders compared to the control peptide. The DQA1*0102/DQB1*0602 binding assay uses a peptide from the B-chain of human insulin which is of lower affinity compared to those used in the DR assays. This dictates that the DQ assay is very sensitive and tends to produce very low ratio values for the strongest binders to this MHC Class II allotype. This sensitivity also accounts for the relatively higher number of DQ binding peptides within the panel screened. Finally, on closer analysis, the peptides identified as ligands for the DRB1*0101,*0401, *0701 superfamily, are found to incorporate a motif that is characteristic of promiscuous binders to this family of allotypes where: P1=Y, F, W, L, I, V, or M (Large aromatic or hydrophobic residue), P6=S, T, C, A, P, V, I, M (small, non-charged residue)

[2] = solubility pre-screen in an aqueous, acidic milieu; format: physicochemical
DRB1*0401 = DRB1*0401 (Homo sapiens, UniProt P01903+P01911, A100K/A169T/F76Y/I96L/K127E/L162R/M171V/N62H/P40V/Q125Y/R42H/S133A/S149N/S66Y/V115G/V209L/W38E); assay: competitive MHC class II binding assay; conditions: control peptide Influenza haemagglutinin 307-319
Text: as §1

DRB1*0701 = DRB1*0701 (Homo sapiens, UniProt P01903+P01911, A100R/A102G/A103Q/D57E/D86V/E43K/F76Y/K127E/L162R/M171V/P40G/Q125H/Q99D/R33Q/R42Y/R54Q/S133A/S66F/T210M/V115G/Y107V/Y59L/Y89S); assay: competitive MHC class II binding assay; conditions: control peptide Influenza haemagglutinin 307-319
Text: as §1

DRB1*1101 = DRB1*1101 (Homo sapiens, UniProt P01903+P01911, A100R/A169T/A87E/I96F/K41T/L162R/M171V/P40S/Q125H/Q178H/Q39Y/Q99D/R42S/S66Y/T262R/V115G/W38E); assay: competitive MHC class II binding assay; conditions: control peptide Influenza haemagglutinin 307-319
Text: as §1

Compound | solubility [1] | relative binding: ratio of peptide IC50 to control peptide IC50, DQA1*0102 DQB1*0602 (DQA1*0102/DQB1*0602) | Solubility test [2] | relative binding: ratio of peptide IC50 to control peptide IC50, DRB1*0401 (DRB1*0401) | relative binding: ratio of peptide IC50 to control peptide IC50, DRB1*0701 (DRB1*0701) | relative binding: ratio of peptide IC50 to control peptide IC50, DRB1*1101 (DRB1*1101)
CSCC[C@H](NC(=O)[C@H](CO)NC(=O)[C@@H](NC(=O)[C@@H](NC(=O)[C@H](CC(=O)O)NC(=O)[C@H](CC(=O)O)NC(=O)[C@@H](N)Cc1c[nH]cn1)C(C)C)C(C)C)C(=O)N[C@@H](CCC(=O)O)C(=O)N[C@@H](Cc1ccc(O)cc1)C(=O)N[C@@H](CC(=O)O)C(=O)N[C@@H](CC(C)C)C(=O)N[C@@H](C)C(=O)N[C@@H](Cc1ccc(O)cc1)C(=O)N[C@@H](CCCCN)C(=O)N[C@@H](CC(C)C)C(=O)O [HDM39A] (H-HDDVVSMEYDLAYKL-OH; N-terminus and C-terminus assumed) | 1000 µM and 1800 µg/mL | 0.1 | YES | 76.19 | 0.71 | 
CSCC[C@H](NC(=O)[C@H](CO)NC(=O)[C@@H](N)C(C)C)C(=O)N[C@@H](CCC(=O)O)C(=O)N[C@@H](Cc1ccc(O)cc1)C(=O)N[C@@H](CC(=O)O)C(=O)N[C@@H](CC(C)C)C(=O)N[C@@H](C)C(=O)N[C@@H](Cc1ccc(O)cc1)C(=O)N[C@@H](CCCCN)C(=O)N[C@@H](CC(C)C)C(=O)NCC(=O)N[C@@H](CC(=O)O)C(=O)N[C@@H](CC(C)C)C(=O)N[C@@H](Cc1c[nH]cn1)C(=O)O [HDM40A] (H-VSMEYDLAYKLGDLH-OH; N-terminus and C-terminus assumed) | 1000 µM and 1800 µg/mL |  | YES |  | 2.29 | 6
